The values that follow are results of earlier work, collected in publication PMC9095539 (Clinical Pharmacokinetics, 2022).

For data set [1] the following is noted: BCS; no reference given.

Take `CCCS(=O)(=O)N[C@H]1C[C@@H](N(C)c2ncnc3[nH]ccc23)C1` [abrocitinib, N-{cis-3-[Methyl(7H-pyrrolo[2,3-d]pyrimidin-4-yl)amino]cyclobutyl}propane-1-sulfo namide]: the “Eliminated unchanged in urine” value is recorded as 1.0–4.4%. In addition, the “Contribution to hepatic metabolism” value with CYP2B6 was 7%. For the same compound, in the data set with CYP3A4, the “Contribution to hepatic metabolism” value is reported as 11%. Besides, the “Time to steady-state plasma concentrations” value (once-daily dosing) is ≤ 4 days. Moreover, the “Time to reach maximum levels” value (oral, healthy individuals) is ≤ 1.5 h. Besides, the “Contribution to hepatic metabolism” value with CYP2C9 is given as 30%. Also, the Permeability result in data set [1] is recorded as “high”. Further, in the data set on CYP2C19, the “Contribution to hepatic metabolism” value is on record as 53%.
